Experimental data as given in patent US4572907A, “High caloric product for I.V. administration” (Abbott Laboratories, priority 1984, dated 1986).

How the values were obtained:
[1] = Stability of the compound, solid or in water (NMR and TLC analysis); format: physicochemical
[2] = Toxicity (LD50) when tested in mice; conditions: mouse, in vivo
Source text: Another advantage of the compounds of this invention are their low toxicity.

Row | degradation at 0° after one month ([1]; 0°, one month, NMR and TLC analysis) | hydrolysis in water after one month ([1]; 15 mg/mL in water, room temperature, one month) | stability in water ([1]; 15 mg/mL in water, room temperature, one week, TLC analysis) | acyl-migration products ([1]; aqueous solution, 60°) | α-anomers remaining after 36 hours ([1]; aqueous solution, 60°, 36 hours, α-anomers) | β-anomers remaining after 36 hours ([1]; aqueous solution, 60°, 36 hours, β-anomers) | hydrolysis of aqueous solution at 60° ([1]; aqueous solution, 60°, formation of D-glucose, NMR and TLC analysis) | time after which slow degradation of the solid was noted ([1]; solid compound, 60°, D-glucose and unidentified decomposition products (TLC)) [h] | SMILES | stability at 0° ([1]; 0°, substantially long periods of time) | relative hydrolysis of β- and α-anomers ([1]; aqueous solution, 60°) | LD50 [2] [mg/kg]
1 | no noticeable degradation | Partial hydrolysis into D-glucose | stable in water | No acyl-migration products were detected | some α-anomers were still present | completely disappeared | some hydrolysis after about two hours | 3 | CCCCC(C(=O)OC1O[C@H](CO)[C@@H](O)[C@H](O)[C@H]1O)C(=O)OC1O[C@H](CO)[C@@H](O)[C@H](O)[C@H]1O (stereo partly drawn) [Example 2, Di-(1,1'-D-glucopyranosyl)n-butylmalonates] | stable at 0° for substantially long periods of time | hydrolysis of the β-anomers appeared faster than that of the α-anomers | –
2 | – | – | – | – | – | – | – | – | CCC(C(=O)OC1O[C@H](CO)[C@@H](O)[C@H](O)[C@H]1O)C(=O)OC1O[C@H](CO)[C@@H](O)[C@H](O)[C@H]1O (stereo partly drawn) [Example 4, Di-(1,1'-D-glucopyranosyl)ethylmalonates] | – | – | 9700
